Measured values as given in patent publication US20240207288A1, “METHODS OF TREATING ESOPHAGEAL STRICTURES” (Ellodi Pharmaceuticals, L.P., priority 2021, published 2024).

Tested on: subjects with strictures and/or rings and EoE
Test: Clinical trial of FP ODT: endoscopy (EREFS, strictures, rings)
Assay type: in vivo, human
Conditions: for Stricture and Grade 2 Rings at Week 12, % / Stricture at Week 12, % / Stricture or Grade 2 Rings at Week 12, % / Subjects with new strictures and/or rings at Week 12, % / Endoscopy Responder Rate (overall EFEFS score ≤4), %: subgroup with strictures and/or Grade 2 rings at baseline; for Endoscopy Responder Rate (overall EFEFS score ≤4), %: Week 12
Excerpt: In some embodiments, the strictures and/or rings are diagnosed using EoE Endoscopic Reference Score (EREFS), which measures edema (e.g., decreased vascularity or pallot), rings present, exudates (e.g., white plaques), furrows, and/or stricture in the esophagus according to Table 1. In embodiments, the patient also has a grade 2 or grade 3 ring.
In some embodiments, the methods of the present disclosure cause an improvement in a patient's EoE Endoscopic Reference score (EREFS). The EREFS identifies the severity of five endoscopic findings: edema, rings, exudates, furrows, and strictures. The EREFS classification system rates the severity of each of the endoscopic findings. The severity of edema is rated on a scale from 0 to 2. The severity of rings is rated from 0 to 3. The severity of exudates is rated from 0 to 2. The severity of furrows is rated from 0 to 2. The severity of strictures is rated from 0 to 1. The absence of a finding corresponds to a score of 0. The presence of a finding corresponds to a score of 1, 2, or 3. A higher score is correlated with higher severity. In some embodiments, the composite EREFS score, or the sum of the individual scores, is utilized to indicate the severity of EoE. In some embodiments, the inflammatory EREFS score, or the sum of the individual edeme, exudate, and furrows score, is utilized to indicate the severity of EoE. In some embodiments, a higher inflammatory or composite EREFS score corresponds to the severity of EoE. In some embodiments, the inflammatory or composite EREFS score decreases after treatment with a corticosteroid according to the methods of the disclosure. In some embodiments the inflammatory or composite EREFS score decreases by 0.1, or about 0.2, or about 0.3, or about 0.4, or about 0.5, or about 0.6, or about 0.7, or about 0.8, or about 0.9, or about 1.0, or about 1.1, or about 1.2, or about 1.3, or about 1.4, or about 1.5, or about 1.6, or about 1.7, or about 1.8, or about 1.9, or about 2.0, or about 2.1, or about 2.2, or about 2.3, or about 2.4, or about 2.5, or about 2.6, or about 2.7, or about 2.8, or about 2.9, or about 3.0, or about 3.1, or about 3.2, or about 3.3, or about 3.4, or about 3.5, or about 3.6, or about 3.7, or about 3.8, or about 3.9, or about 4.0, or about 4.1, or about 4.2, or about 4.3, or about 4.4, or about 4.5, or about 4.6, or about 4.7, or about 4.8, or about 4.9, or about 5.0, or about 5.1, or about 5.2, or about 5.3, or about 5.4, or about 5.5, or about 5.6, or about 5.7, or about 5.8, or about 5.9, or about 6.0, or about 6.1, or about 6.2, or about 6.3, or about 6.4, or about 6.5, or about 6.6, or about 6.7, or about 6.8, or about 6.9, or about 7.0, or about 7.1, or about 7.2, or about 7.3, or about 7.4, or about 7.5, or about 7.6, or about 7.7, or about 7.8, or about 7.9, or about 8.0, or about 8.1, or about 8.2, or about 8.3, or about 8.4, or about 8.5, or about 8.6, or about 8.7, or about 8.8, or about 8.9, or about 9.0, or about 9.1, or about 9.2, or about 9.3, or about 9.4, or about 9.5, or about 9.6, or about 9.7, or about 9.8, or about 9.9, or about 10.0 points, or more, inclusive of all ranges between these values. In some embodiments, the EREFS score decreases by 1%, or 5%, or 10%, or 15%, or 20%, or 25%, or 30%, or 35%, or 40%, or 45%, or 50%, or 55%, or 60%, or 65%, or 70%, or 75%, or 80%, or 85%, or 90%, or 95% or more, inclusive of all ranges between these values. The following article, incorporated by reference in its entirety herein, describes the EREFS score: Wechsler, Clin Hepatol. 2018 July; 16(7): 1056-1063.
A clinical trial was performed to evaluate the effect of an orally disintegrating tablet (“ODT”) comprising fluticasone propionate (FP). A randomised, double-blind, placebo-controlled, multicentre, dose-ranging, and maintenance study of FP in subjects (>18 and <75 years of age) with strictures and/or rings and EoE. […]

[1] = all FP dosing groups, TOTAL (n = 43)

S-(fluoromethyl)-6α,9-difluoro-11β, 17-dihydroxy-16α-methyl-3-oxoandrosta-1, 4-diene-17β-carbothioate, 17-propanoate [FP]
Stricture and Grade 2 Rings at Week 12, % (FP 1.5 mg BID (n = 12)): 0% | Stricture at Week 12, % (FP 1.5 mg BID (n = 12)): 42% | Stricture or Grade 2 Rings at Week 12, % (FP 1.5 mg BID (n = 12)): 50% | Subjects with new strictures and/or rings at Week 12, % (FP 1.5 mg BID (n = 12)): 0% | Endoscopy Responder Rate (overall EFEFS score ≤4), % (FP 1.5 mg BID (n = 12)): 92% | Stricture and Grade 2 Rings at Week 12, % (FP 1.5 mg HS (n = 13)): 0% | Stricture at Week 12, % (FP 1.5 mg HS (n = 13)): 8% | Stricture or Grade 2 Rings at Week 12, % (FP 1.5 mg HS (n = 13)): 15% | Subjects with new strictures and/or rings at Week 12, % (FP 1.5 mg HS (n = 13)): 0% | Endoscopy Responder Rate (overall EFEFS score ≤4), % (FP 1.5 mg HS (n = 13)): 77% | Stricture and Grade 2 Rings at Week 12, % (FP 3 mg BID (n = 7)): 0% | Stricture at Week 12, % (FP 3 mg BID (n = 7)): 29% | Stricture or Grade 2 Rings at Week 12, % (FP 3 mg BID (n = 7)): 29% | Subjects with new strictures and/or rings at Week 12, % (FP 3 mg BID (n = 7)): 0% | Endoscopy Responder Rate (overall EFEFS score ≤4), % (FP 3 mg BID (n = 7)): 86% | Stricture and Grade 2 Rings at Week 12, % (FP 3 mg HS (n = 11)): 0% | Stricture at Week 12, % (FP 3 mg HS (n = 11)): 9% | Stricture or Grade 2 Rings at Week 12, % (FP 3 mg HS (n = 11)): 18% | Subjects with new strictures and/or rings at Week 12, % (FP 3 mg HS (n = 11)): 0% | Endoscopy Responder Rate (overall EFEFS score ≤4), % (FP 3 mg HS (n = 11)): 100% | Stricture and Grade 2 Rings at Week 12, % [1]: 0% | Stricture at Week 12, % [1]: 21% | Stricture or Grade 2 Rings at Week 12, % [1]: 28% | Subjects with new strictures and/or rings at Week 12, % [1]: 0% | Endoscopy Responder Rate (overall EFEFS score ≤4), % [1]: 88% | Grade 2 Rings at Week 12, % (all FP dosing groups, subjects with stricture/rings at baseline): 7% | Effect on strictures and/or grade 2 esophageal rings (post-hoc analysis) (patients with strictures and/or grade 2 esophageal rings at baseline, particularly the 3-mg HS dosing group): improvement or resolution of these features in most patients
